39 compounds from ChEMBL document CHEMBL4483862, “Open-source discovery of chemical leads for next-generation chemoprotective antimalarials” (2018) can be followed below.

In the assay the test system is Plasmodium berghei. Put plainly: Luciferase/luciferin-expressing antifolate-resistant parasites were used to infect a culture of HepG2 cells that were pre-incubated with compounds. Infected hepatocytes emit light due to the luciferase reaction. Assay results are presented as the percent inhibition of light emission compared to control. […]. Format: functional. The settings on record: sporozoite; for IC90: read-out: LUCIFERASE INFECTION ASSAY - IC90.

Where [1] appears, read: read-out: LUCIFERASE INFECTION ASSAY - IC50.

A value given as a limit tells only on which side of the number the result lay.

As usually defined, the IC50 is the concentration at which inhibition is half-maximal. Broadly, the IC90 is the concentration at which the effect reaches the 90% level. For `Cc1c(Cl)cn2c(=O)cc(CN3CCN(c4ccccc4)CC3)nc2c1Cl`, the 90% effect concentration (IC90) is > 10 µM. In addition, the IC50 under setting [1] is > 10 µM.

Turning to `C=C(C)COc1ccc(-c2onc(C)c2-c2ccc(OC)c(OC)c2)c(O)c1`, the IC90 came to 7.35 µM. Under setting [1], the IC50 came out at 0.64 µM.

As for `CC(=O)c1ccc(OCC(O)CN2CCC(c3c[nH]c4ccccc34)CC2)cc1` (stereo not drawn), the IC90 is > 10 µM. Also, under setting [1], the IC50 is 5.84 µM.

Regarding `Cc1sc2nc(-c3cccnc3)nc(NCC(c3ccco3)N(C)C)c2c1C` (stereo not drawn), the IC90 is > 10 µM. Also, the IC50 under setting [1] is > 10 µM.

In the case of `O=C(Nc1ccc(S(=O)(=O)N2CCCC2)cc1)c1cc([N+](=O)[O-])ccc1Sc1nnnn1-c1ccccc1`, the 90% effect concentration (IC90) is > 10 µM. Moreover, the IC50 (FFLUC_HILL_SLOPE 8.42, FFLUC_R_SQUARED 0.732, read-out: LUCIFERASE INFECTION ASSAY - IC50) is > 10 µM.

For `CC(OC(=O)c1ccccc1NS(=O)(=O)c1ccc2c(c1)OCCO2)C(=O)Nc1ccc([N+](=O)[O-])cc1C(F)(F)F` (stereo not drawn), the IC90 was > 10 µM. Also, the IC50 under setting [1] is > 10 µM.

Take `Cc1ccc(-c2csc(NCSc3cccc4cccnc34)n2)cc1`: the IC90 was > 10 µM. The IC50 under setting [1] was > 10 µM.

In the case of `CCn1nc(C)c(Sc2nccn2C)c1C`, the 90% effect concentration (IC90) was > 14 µM. Besides, the IC50 (HEPG2TOX_HILL_SLOPE 10.5, HEPG2TOX_R_SQUARED 0.481, PBLUC_HILL_SLOPE 1.71, PBLUC_R_SQUARED 0.393, read-out: LUCIFERASE INFECTION ASSAY - IC50) was 4.63 µM.

Regarding `COc1c(Cl)cc([N+](=O)[O-])c(OC)c1C(=O)NC(=O)Nc1cc(Cl)cc(Cl)c1`, the IC90 was > 7.36 µM. Besides, the IC50 (FFLUC_HILL_SLOPE 1.87, FFLUC_R_SQUARED 0.625, PBLUC_HILL_SLOPE 21.1, PBLUC_R_SQUARED 0.112, read-out: LUCIFERASE INFECTION ASSAY - IC50) is 6.88 µM.

As to `CCOC(=O)c1c(NC(=O)C[n+]2ccc(Cc3ccccc3)cc2)sc(C)c1C`, the IC90 is 8.6 µM. For the same compound, the IC50 under setting [1] came out at 3.79 µM.

Regarding `Cc1cccc(OCc2nnc(SCC(=O)c3ccc4c(c3)CCC4)o2)c1`, the IC90 is > 10 µM. Besides, the 50% inhibitory concentration (IC50) under setting [1] is > 10 µM.

On to `Cc1ccc(-c2nnc(SCC(=O)c3c(N)n(C)c(=O)n(C)c3=O)nc2-c2ccc(C)cc2)cc1`, for which the 90% effect concentration (IC90) was > 10 µM. Besides, the IC50 (FFLUC_HILL_SLOPE 1.03, FFLUC_R_SQUARED 0.511, read-out: LUCIFERASE INFECTION ASSAY - IC50) is > 10 µM.

For the compound `COc1ccc(Cl)cc1COC(=O)COc1ccc2c(c1)CCC(=O)N2`, the IC90 is > 10 µM. The IC50 (PBLUC_HILL_SLOPE 0.441, PBLUC_R_SQUARED 0.194, read-out: LUCIFERASE INFECTION ASSAY - IC50) was > 10 µM.

For the compound `CCCN1C(=O)/C(=N\OCC(=O)c2cc(C)n(Cc3cccs3)c2C)c2ccccc21`, the 90% effect concentration (IC90) was > 10 µM. For the same compound, the half-maximal inhibitory concentration (IC50) (HEPG2TOX_HILL_SLOPE 0.794, HEPG2TOX_R_SQUARED 0.3, read-out: LUCIFERASE INFECTION ASSAY - IC50) is > 10 µM.

With `CC1Cc2cc(C3=NNC(=Nc4ccccc4[N+](=O)[O-])SC3)ccc2N1S(C)(=O)=O` (stereo not drawn), the IC90 was > 10 µM. For the same compound, the IC50 under setting [1] is 5.32 µM.

In the case of `O=c1cc(CNc2ccccc2N2CCCCC2)nc2sccn12`, the concentration for an effect of 90% (IC90) is > 10 µM. Also, the IC50 under setting [1] is 9.19 µM.

Regarding `COc1ccc2c(c1)nnc1nnc(SCC(=O)N3CCOCC3)n12`, the IC90 is > 9.16 µM. Also, the IC50 under setting [1] is > 9.16 µM.

`COc1ccccc1NS(=O)(=O)c1ccc(NNC(=S)Nc2cc(C)cc(C)c2)c([N+](=O)[O-])c1`: the IC90 was > 10 µM. Further, the IC50 (FFLUC_HILL_SLOPE 0.289, FFLUC_R_SQUARED 0.0194, HEPG2TOX_HILL_SLOPE 0.191, HEPG2TOX_R_SQUARED 0.347, PBLUC_HILL_SLOPE 3.05, PBLUC_R_SQUARED 0.49, read-out: LUCIFERASE INFECTION ASSAY - IC50) is 5.73 µM.

As to `c1ccc(C(Nc2ncnc3sccc23)c2ccco2)cc1` (stereo not drawn), the IC90 was > 10 µM. The IC50 (PBLUC_HILL_SLOPE 17.3, PBLUC_R_SQUARED 0.0145, read-out: LUCIFERASE INFECTION ASSAY - IC50) came to 8.98 µM.

With `C=CCNc1sc(C(=O)/C(C#N)=C2\Nc3ccccc3S2)c(N)c1C(=O)Nc1ccc(Cl)cc1`, the IC90 was 4.13 µM. In addition, the IC50 (FFLUC_HILL_SLOPE 4, FFLUC_R_SQUARED 0.164, HEPG2TOX_HILL_SLOPE 6.65, HEPG2TOX_R_SQUARED 0.57, PBLUC_HILL_SLOPE 11, PBLUC_R_SQUARED 0.696, read-out: LUCIFERASE INFECTION ASSAY - IC50) is 3.38 µM.

In the case of `Cc1nnc(NC(=O)c2cn(-c3ccccc3)nc2-c2ccccc2C)o1`, the IC90 was found to be 0.255 µM. Moreover, under “HEPG2TOX_HILL_SLOPE 0.258, HEPG2TOX_R_SQUARED 0.871, PBLUC_HILL_SLOPE 2.72, PBLUC_R_SQUARED 0.839, read-out: LUCIFERASE INFECTION ASSAY - IC50”, the IC50 stood at 0.114 µM.

In the case of `CCc1sc2nc(SCc3cc(=O)n4cc(Br)ccc4n3)n(-c3cccc(OC)c3)c(=O)c2c1C`, the IC90 was > 10 µM. Also, the IC50 under setting [1] was > 10 µM.

As to `COc1cc(NC(=O)COC(=O)CNC(=O)C2CCCCC2)cc(OC)c1`, the IC90 was > 10 µM. For the same compound, the IC50 under setting [1] is > 10 µM.

With `COc1ccc(-c2ccc(-c3nc4c(c(=O)[nH]c(=O)n4CC(C)C)n3CC(C)C)o2)c([N+](=O)[O-])c1`, the IC90 was > 10 µM. Further, under setting [1], the IC50 was > 10 µM.

On to `CCOC(=O)c1c(-c2ccc(Br)cc2)cn2c(=O)/c(=C3\C=CC=CN3C)sc12`, for which the IC90 was > 10 µM. For the same compound, the IC50 (FFLUC_HILL_SLOPE 2.7, FFLUC_R_SQUARED 0.575, PBLUC_HILL_SLOPE 2.12, PBLUC_R_SQUARED 0.479, read-out: LUCIFERASE INFECTION ASSAY - IC50) came to 7.05 µM.

Consider `O=C(Nc1nc2ccccc2[nH]1)c1cc2ccccc2cc1O`, for which the IC90 is > 10 µM. Further, the IC50 (PBLUC_HILL_SLOPE 1.13, 0.699, PBLUC_R_SQUARED 0.533, 0.940, read-out: LUCIFERASE INFECTION ASSAY - IC50) was found to be 1.94 µM.

With `COc1ccc(N(CCCN2C(=O)c3cccc4cccc(c34)C2=O)C(=O)c2ccccc2Cl)cc1`, the IC90 was found to be 0.656 µM. For the same compound, the IC50 (HEPG2TOX_HILL_SLOPE 2.18, HEPG2TOX_R_SQUARED 0.863, PBLUC_HILL_SLOPE 2.29, PBLUC_R_SQUARED 0.755, read-out: LUCIFERASE INFECTION ASSAY - IC50) turned out to be 0.251 µM.

In the case of `Cc1cc(C)n(-c2ccc([N+](=O)[O-])cc2S(=O)(=O)N(CC(=O)N2CCCc3ccccc32)c2ccc(Cl)cc2)n1`, the IC90 was found to be 4.71 µM. The IC50 (FFLUC_HILL_SLOPE 9.12, FFLUC_R_SQUARED 0.891, HEPG2TOX_HILL_SLOPE 1.68, HEPG2TOX_R_SQUARED 0.248, PBLUC_HILL_SLOPE 7.9, PBLUC_R_SQUARED 0.762, read-out: LUCIFERASE INFECTION ASSAY - IC50) came out at 3.56 µM.

For `Cc1cccc(/C=C2\CC(C#N)(c3ccccc3)C/C(=C\c3cccc(C)c3)C2=O)c1` (stereo not drawn), the concentration for an effect of 90% (IC90) was > 10 µM. Further, under “PBLUC_HILL_SLOPE 1.76, PBLUC_R_SQUARED 0.46, read-out: LUCIFERASE INFECTION ASSAY - IC50”, the IC50 was determined as 9.05 µM.

Take `O=C(c1cccc(Cl)c1)c1cnc(Nc2cccc(C(F)(F)F)c2)[nH]1`: the IC90 is > 9.02 µM. Also, the IC50 under setting [1] stood at 5.49 µM.

In the case of `Cc1coc(C)c1C(=O)/C=C/c1ccc2cccnc2c1`, the IC90 was found to be 2.69 µM. Further, under setting [1], the IC50 came out at 2.51 µM.

Consider `COC(=O)c1ccc(=O)n(CC(=O)Nc2ccc(C(C)(C)C)cc2)c1`, for which the IC90 was > 10 µM. Moreover, the half-inhibitory concentration (IC50) (PBLUC_HILL_SLOPE 11, PBLUC_R_SQUARED 0.594, read-out: LUCIFERASE INFECTION ASSAY - IC50) is 9.09 µM.

With `C(=C(c1nc2ccccc2s1)c1nc2ccccc2s1)C1=C(c2ccccc2)Oc2ccccc2O1`, the IC90 was > 10 µM. The IC50 (FFLUC_HILL_SLOPE 7.98, FFLUC_R_SQUARED 0.561, PBLUC_HILL_SLOPE 1.21, PBLUC_R_SQUARED 0.509, read-out: LUCIFERASE INFECTION ASSAY - IC50) amounted to 9.27 µM.

As for `Nc1nccnc1C(=O)Nc1ncc(Cc2cc(Cl)cc(Cl)c2)s1`, the IC90 is 7.09 µM. For the same compound, where the note is “PBLUC_HILL_SLOPE 2.47, PBLUC_R_SQUARED 0.427, read-out: LUCIFERASE INFECTION ASSAY - IC50”, the IC50 was found to be 2.91 µM.

Turning to `Cc1nc(SCC(=O)Nc2ccccc2C#N)c2c(-c3cccs3)csc2n1`, the IC90 is > 10 µM. Further, under “PBLUC_HILL_SLOPE 4.22, PBLUC_R_SQUARED 0.391, read-out: LUCIFERASE INFECTION ASSAY - IC50”, the IC50 is 6.05 µM.

Turning to `Cc1[nH]c2ccc(F)cc2c(=O)c1I`, the IC90 came to 1.32 µM. In addition, under “PBLUC_HILL_SLOPE 10, PBLUC_R_SQUARED 0.604, read-out: LUCIFERASE INFECTION ASSAY - IC50”, the IC50 amounted to 1.06 µM.

Consider `COc1ccc(NS(=O)(=O)c2cc(NC(=O)c3cccc(OC(F)F)c3)ccc2N2CCCCC2)cc1`, for which the IC90 was > 10 µM. For the setting “FFLUC_HILL_SLOPE 8.96, FFLUC_R_SQUARED 0.85, read-out: LUCIFERASE INFECTION ASSAY - IC50”, the IC50 is > 10 µM.

Take `CCN(Cc1ccccc1)S(=O)(=O)c1ccc2c(c1)CCCN2C(C)=O`: the IC90 was > 10 µM. Under “PBLUC_HILL_SLOPE 1.76, PBLUC_R_SQUARED 0.382, read-out: LUCIFERASE INFECTION ASSAY - IC50”, the IC50 is 8.69 µM.

With `O=C(Nc1ccccc1)Nc1nnc(C(F)(F)F)s1`, the IC90 was 1.07 µM. In addition, the IC50 (HEPG2TOX_HILL_SLOPE 2.53, HEPG2TOX_R_SQUARED 0.953, PBLUC_HILL_SLOPE 4.44, PBLUC_R_SQUARED 0.774, read-out: LUCIFERASE INFECTION ASSAY - IC50) turned out to be 0.65 µM.
